Reference: patent US20260240869A1, “ANTIPSEUDOMONAL FUSIDIC ACID COMPOUNDS” (priority 2022, published 2026)
Values after ≈ are worked out from the molar mass of the structure shown. Like-named read-outs stand apart in the source and are kept apart here.

Columns and labels:
P. aeruginosa PAO1 [1] = experiment: LC-MS/MS whole-cell accumulation assay, P. aeruginosa PAO1; assay type: cell-based, Pseudomonas aeruginosa; conditions: for PA accum.: P. aeruginosa, value ± s.e.m. (Chart 2); for WT Accum: WT PAO1, ± s.e.m. (Table 7)
Protocol: (§1) Accumulation Assay. The accumulation assay was performed in triplicate in batches of ten samples, with each batch containing tetracycline or ciprofloxacin as a positive control. P. aeruginosa PAO1, PAO1 A6, PA14, PA14 A40, and PA1280, and E. coli MG1655 were used in these experiments. For each replicate, 2.5 mL (E. coli) or 5 mL (P. aeruginosa) of an overnight culture was diluted into 250 mL of fresh Luria-Bertani broth (Lennox) or Tryptic Soy Broth (TSB) and grown at 37° C. with shaking to an optical density (OD600) of 0.55-0.60. The bacteria were pelleted at 3220 r.c.f. for 10 min at 4° C., and the supernatant was discarded. The pellets were resuspended in 40 mL of phosphate buffered saline (PBS) and pelleted as before, and the supernatant was discarded. The pellets were resuspended in 8.8 mL of fresh PBS and aliquoted into ten, 1.5 mL Eppendorf tubes (875 μL each). The number of colony-forming units (CFUs) was determined by a calibration curve. The samples were equilibrated at 37° C. with shaking for 5 min; compound was added (final concentration=50 μM), and then the samples were incubated at 37° C. with shaking for either 10 min. These time points were short enough to minimize metabolic and growth changes (no changes in OD600 or CFU count observed). After incubation, 800 μL of the cultures was carefully layered on 700 μL of silicone oil (9:1 AR20/Sigma High Temperature, cooled to −78° C.). Bacteria were pelleted through the oil by centrifuging at 13 000 r.c.f. for 2 min at room temperature (with the supernatant remaining above the oil); the supernatant and oil were then removed by pipetting. To lyse the samples, each pellet was dissolved in […] of water, and then, they were subjected to three (E. coli) or four (P. aeruginosa) freeze-thaw cycles of 3 min in liquid nitrogen followed by 3 min in a water bath at 65° C. P. aeruginosa samples were then treated with 50 µM DNase and RNase and incubated at 37° C. for 15 minutes. The lysates were pelleted at 13 000 r.c.f. for 2 min at room temperature, and the supernatant was collected ([…]). The debris was resuspended in 100 μL of methanol and pelleted as before. The supernatants were removed and combined with the previous supernatants collected. Finally, the remaining debris was removed by centrifuging at 20 000 r.c.f. for 10 min at room temperature. Supernatants were analyzed by LC-MS/MS.
(§2) Samples were analyzed with the 5500 QTRAP LC/MS/MS system (AB Sciex) with a 1200 series HPLC system (Agilent Technologies) including a degasser, an autosampler, and a binary pump. Liquid chromatography separation was performed on an Agilent SB-Aq column (4.6×50 mm, 5 μm) (Agilent Technologies) with mobile phase A (0.1% formic acid in water) and mobile phase B (0.1% formic acid in acetonitrile). The flow rate was 0.3 mL/min. The linear gradient was as follows: 0-3 min, 100% mobile phase A; 10-15 min, 2% mobile phase A; 15.5-21 min, 100% mobile phase A. The autosampler was set at 5° C. The injection volume was 15 μL. Mass spectra were acquired with both positive electrospray ionization at the ion spray voltage of 5500 V and negative electrospray ionization at the ion spray voltage of −4500 V. The source temperature was 450° C. The curtain gas, ion source gas 1, and ion source gas 2 were 33, 50, and 65, respectively. Multiple reaction monitoring was used to quantify the metabolites. Power analysis was not used to determine the number of replicates. Error bars represent the standard error of the mean of three biological replicates. The statistical significance of the accumulation was determined using a two sample Welch's t test (one-tailed test, assuming unequal variance) relative to the negative controls. All compounds evaluated in the biological assays were >95% pure.
MBN assay. Assays measuring permeabilization by polymyxin B nonapeptide (PMBN) were performed as above, with the addition of 8 μg/mL PMBN immediately before the compound of interest was added.

E. coli MG1655 [2] = experiment: LC-MS/MS whole-cell accumulation assay, E. coli MG1655; assay type: cell-based; conditions: for EC accum.: E. coli, value ± s.e.m. (Chart 2); for EC Accumulation (FA): E. coli MG1655, accumulation of FA reported (Table 8)
Protocol: as §1, §2

WT PA = conditions: retrospective literature analysis (Table 6); cited from earlier work
WT EC = conditions: retrospective literature analysis (Table 6); cited from earlier work
tolC EC = conditions: retrospective literature analysis (Table 6); cited from earlier work
P. aeruginosa PAO1 [3] = experiment: MIC, CLSI broth microdilution, P. aeruginosa PAO1; assay type: cell-based, Pseudomonas aeruginosa; conditions: for MIC: Pseudomonas aeruginosa
Protocol: (§3) Antimicrobial Susceptibility Tests. Susceptibility testing was performed in biological triplicate, using the microdilution broth method as outlined by the Clinical and Laboratory Standards Institute. Bacteria were cultured with cation-adjusted Meuller-Hinton broth (Sigma-Aldrich; catalogue number: 90922) or Luria-Bertani (LB) broth (Lennox) in round-bottom 96-well plates (Corning; catalogue number: 3788).

E. coli MG1655 [4] = experiment: MIC, E. coli MG1655; assay type: cell-based; conditions: Escherichia coli, MG1655; CLSI (Table 8); read-out: E. coli MG1655 MIC
Protocol: as §3

P. aeruginosa PAΔ6 [5] = experiment: MIC, efflux pump knockout strain PAΔ6; assay type: cell-based, Pseudomonas aeruginosa; conditions: for Fold change (MIC): WT MIC / PAΔ6 MIC (Table 7)
Protocol: as §3

P. aeruginosa PAΔ6 [6] = experiment: LC-MS/MS whole-cell accumulation assay, PAΔ6; assay type: cell-based, Pseudomonas aeruginosa; conditions: for Fold change (Accum): PAΔ6 Accum / WT Accum (Table 7); for PAΔ6 Accum: ± s.e.m. (Table 7)
Protocol: as §1, §2

[7] = PAO1, CLSI (Table 8), read-out: P. aeruginosa PAO1 MIC
[8] = WT P. aeruginosa PAO1, MH or LB broth (Table 7), read-out: WT MIC

In the case of NCCCCCCNS(=O)(=O)c1cccc2ccccc12 [Compound 54], the PA accum. (P. aeruginosa PAO1 [1]) is reported as 399 ± 63 nmol/10^12 CFUs and the EC accum. (E. coli MG1655 [2]) is reported as 108 ± 17 nmol/10^12 CFUs.
Molecule Cn1cc(C2=C(c3c4n(c5ccccc35)CC[C@H](CN)C4)C(=O)NC2=O)c2ccccc21 [Compound 55] has a PA accum. (P. aeruginosa PAO1 [1]) of 1193 ± 27 nmol/10^12 CFUs and an EC accum. (E. coli MG1655 [2]) of 17 ± 7 nmol/10^12 CFUs.
For Cc1ccc(C(=O)N(CCCN)[C@@H](c2nc3cc(Cl)ccc3c(=O)n2Cc2ccccc2)C(C)C)cc1 [Compound 56], the PA accum. (P. aeruginosa PAO1 [1]) was 658 ± 113 nmol/10^12 CFUs and the EC accum. (E. coli MG1655 [2]) was 244 ± 31 nmol/10^12 CFUs.
In the case of Cc1nc(-c2ccc(C(C)(C)C)cc2)ncc1C(=O)N[C@@H](CCN)C(=O)N(C)[C@@H]1C(=O)N[C@@H](C)C(=O)N[C@H](C(=O)NCC#N)Cc2ccc(OCCN)c(c2)-c2cc1ccc2OCCN [Compound G0775], the “WT PA MIC” value (WT PA) is listed as 2 µg/mL, the “WT EC MIC” value (WT EC) is listed as 0.125 µg/mL and the “tolC EC MIC” value (tolC EC) is listed as 0.063 µg/mL.
In the case of Cc1nc(-c2ccc(C(C)(C)C)cc2)ncc1C(=O)N[C@@H](CCO)C(=O)N(C)[C@@H]1C(=O)N[C@@H](C)C(=O)N[C@H](C(=O)NCC#N)Cc2ccc(O)c(c2)-c2cc1ccc2O [Compound G8126], the “WT PA MIC” value (WT PA) is listed as >64 µg/mL and the “WT EC MIC” value (WT EC) is listed as 32 µg/mL.
For CC(=O)O[C@H]1C[C@@]2(C)[C@@H](C[C@@H](O)[C@H]3[C@@]4(C)CC[C@@H](O)[C@@H](C)[C@@H]4CC[C@@]32C)/C1=C(\CCC=C(C)C)C(=O)NCCCNCCCNCCCN [FA polyamine], the “antibacterial activity (in words)” value (P. aeruginosa PAO1 [3]; Chart 6, strain not given) was “no longer has potent antibacterial activity” and the “increase in accumulation relative to FA” value (P. aeruginosa PAO1 [1]; text b129) was 30 -fold.
In the case of CC(=O)O[C@H]1C[C@@]2(C)[C@@H](C[C@@H](O)[C@H]3[C@@]4(C)CC[C@@H](O)[C@@H](C)[C@@H]4CC[C@@]32C)/C1=C(\CCC=C(C)C)C(=O)O/N=C(\N)CN [FA prodrug 1], the MIC (P. aeruginosa PAO1 [3]; [7]) is reported as > 256 µg/mL, the MIC (E. coli MG1655 [4]) is reported as > 256 µg/mL and the “EC Accumulation (FA)” value (E. coli MG1655 [2]) is reported as 850 ± 61 nmol/1012 CFUs.
In the case of CC(=O)O[C@H]1C[C@@]2(C)[C@@H](C[C@@H](O)[C@H]3[C@@]4(C)CC[C@@H](O)[C@@H](C)[C@@H]4CC[C@@]32C)/C1=C(\CCC=C(C)C)C(=O)O/N=C(\N)CNCCCN [FA prodrug 2], the MIC (P. aeruginosa PAO1 [3]; [7]) is reported as > 256 µg/mL, the MIC (E. coli MG1655 [4]) is reported as 256 µg/mL (≈ 397 µM) and the “EC Accumulation (FA)” value (E. coli MG1655 [2]) is reported as 969 ± 71 nmol/1012 CFUs.
With CC(=O)O[C@H]1C[C@@]2(C)[C@@H](C[C@@H](O)[C@H]3[C@@]4(C)CC[C@@H](O)[C@@H](C)[C@@H]4CC[C@@]32C)/C1=C(\CCC=C(C)C)C(=O)O/N=C(\N)CNCCCNCCCN [FA prodrug 3] the MIC (P. aeruginosa PAO1 [3]; [7]) was 128 µg/mL (≈ 182 µM), the MIC (E. coli MG1655 [4]) was 32 µg/mL (≈ 45.6 µM) and the “EC Accumulation (FA)” value (E. coli MG1655 [2]) was 1764 ± 37 nmol/1012 CFUs.
In the case of Cc1cc(NS(=O)(=O)c2ccc(N)cc2)no1 [Sulfamethoxazole], the MIC (P. aeruginosa PAO1 [3]; [8]) is reported as > 64 µg/mL, the “PAΔ6 MIC” value (P. aeruginosa PAΔ6 [5]; MH or LB broth (Table 7)) is reported as 4 µg/mL and the “Fold change (MIC)” value (P. aeruginosa PAΔ6 [5]) is reported as >16. For the same molecule, the “WT Accum” value (P. aeruginosa PAO1 [1]) was 101 ± 26 nmol/10^12 CFUs, the “Fold change (Accum)” value (P. aeruginosa PAΔ6 [6]) was 4.2 and the “PAΔ6 Accum” value (P. aeruginosa PAΔ6 [6]) was 420 ± 15 nmol/10^12 CFUs.
For COc1cc(Cc2cnc(N)nc2N)cc(OC)c1OC [Trimethoprim], the MIC (P. aeruginosa PAO1 [3]; [8]) was > 512 µg/mL, the “PAΔ6 MIC” value (P. aeruginosa PAΔ6 [5]; MH or LB broth (Table 7)) was 2 µg/mL and the “Fold change (MIC)” value (P. aeruginosa PAΔ6 [5]) was >256. The “WT Accum” value (P. aeruginosa PAO1 [1]) was 136 ± 11 nmol/10^12 CFUs, the “Fold change (Accum)” value (P. aeruginosa PAΔ6 [6]) was 2.6 and the “PAΔ6 Accum” value (P. aeruginosa PAΔ6 [6]) was 356 ± 28 nmol/10^12 CFUs.
In the case of C=C[C@]1(C)C[C@@H](OC(=O)CSC(C)(C)CNC(=O)[C@H](N)C(C)C)[C@]2(C)[C@H](C)CC[C@]3(CCC(=O)[C@H]32)[C@@H](C)[C@@H]1O [Valnemulin], the MIC (P. aeruginosa PAO1 [3]; PAO1, read-out: PAO1 MIC) is reported as 256 µg/mL (≈ 453 µM), the MIC (P. aeruginosa PAO1 [3]; PAO1, read-out: WT MIC) is reported as 256 µg/mL (≈ 453 µM) and the “PAO1 + PMBN MIC” value (P. aeruginosa PAO1 [3]; co-treatment of 8 μg/mL of PMBN, MH broth) is reported as 1 µg/mL. For the same molecule, the Fold change (P. aeruginosa PAΔ6 [5]; MIC ratio WT PAO1 / PAΔ6 (Table 2)) was 2048, the “PAΔ6 MIC” value (P. aeruginosa PAΔ6 [5]; efflux pump KO strain, MH or LB broth (Table 2)) was 0.125 µg/mL and the “change of accumulation upon membrane permeabilization” value (P. aeruginosa PAO1 [1]; treatment with PMBN, FIG. 1b) was “significant increase in accumulation”. The “change of accumulation in efflux pump knockout PAΔ6 versus WT PAO1” value (P. aeruginosa PAΔ6 [6]; FIG. 1c) was “increase in accumulation”.
